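Five concentrations, 48 hours, 96-well plates. GI50: concentration for 50% inhibition of growth.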 Active and inactive are the calls of the source. Rule as the data show it: active = GI50 up to about 1.1 µM and inactive = higher. Where a SMILES comes first, the peptide text is derived from it. [ ]: non-standard residue; d: D form. The star is where a group is joined. Chg = N[CH](C(=O)O)C1CCCCC1; Cbz = O=C(OCc1ccccc1)*; OBn = c1ccc(CO*)cc1
Experiments:
Assay in all cases: growth of human tumour cells (NCI), 48 h
ACHN = system: ACHN
CCRF-CEM = system: CCRF-CEM
HCC 2998 = system: HCC 2998
HCT-116 = system: HCT-116
HL-60 = system: HL-60
LOX IMVI = system: LOX IMVI
M19-MEL = system: M19-MEL
MOLT-4 = system: MOLT-4
NCI-H226 = system: NCI-H226
NCI-H23 = system: NCI-H23
SF-539 = system: SF-539
SK-MEL-2 = system: SK-MEL-2
SK-OV-3 = system: SK-OV-3
SN12C = system: SN12C
SNB-19 = system: SNB-19
SNB-75 = system: SNB-75
U-251 = system: U-251
HOP-92 = system: HOP-92
MDA-MB-435 = system: MDA-MB-435
MDA-N = system: MDA-N

Measured: GI50

COc1cc(/C=C(\C)c2ccc3c(c2)OCO3)cc(OC)c1OC
inactive: ACHN 10.3 µM | CCRF-CEM 19.8 µM | HCC 2998 25.5 µM | HCT-116 31.8 µM | HL-60 15.7 µM | LOX IMVI 16 µM | M19-MEL 31.4 µM | MOLT-4 16.7 µM | NCI-H226 33.7 µM | NCI-H23 37.5 µM | SF-539 14.1 µM | SK-MEL-2 23.4 µM | SK-OV-3 28 µM | SN12C 26.2 µM | SNB-19 50.7 µM | SNB-75 5 µM | U-251 50.4 µM

COc1ccc(S(=O)(=O)NNS(C)(=O)=O)cc1OC
inactive: ACHN > 100 µM | CCRF-CEM > 100 µM | HCC 2998 > 100 µM | HL-60 > 100 µM | LOX IMVI > 100 µM | M19-MEL > 100 µM | MOLT-4 > 100 µM | NCI-H226 > 100 µM | NCI-H23 > 100 µM | SF-539 > 100 µM | SK-MEL-2 > 100 µM | SN12C > 100 µM | SNB-19 > 100 µM | SNB-75 > 100 µM | U-251 > 100 µM

C/C(=C\c1ccccc1)C(=O)c1c(C)cc(C)cc1C
inactive: ACHN > 100 µM | CCRF-CEM > 100 µM | HCT-116 > 100 µM | HL-60 > 100 µM | HOP-92 > 100 µM | M19-MEL > 100 µM | MOLT-4 > 100 µM | NCI-H226 > 100 µM | NCI-H23 > 100 µM | SF-539 > 100 µM | SK-MEL-2 > 100 µM | SK-OV-3 > 100 µM | SN12C > 100 µM | SNB-19 > 100 µM | SNB-75 > 100 µM | U-251 > 100 µM

Nc1ccc(C(=O)N/C(=C\c2ccc3c(c2)OCO3)c2nc3c(O)nc(S)nc3[nH]2)cc1
inactive: ACHN > 100 µM | CCRF-CEM > 100 µM | HCC 2998 > 100 µM | HOP-92 75.5 µM | M19-MEL > 100 µM | MOLT-4 > 100 µM | NCI-H23 > 100 µM | SF-539 > 100 µM | SK-MEL-2 > 100 µM | SK-OV-3 > 100 µM | SN12C > 100 µM | SNB-19 > 100 µM | U-251 > 100 µM

CCOP(C)(=O)/C(Cc1ccc(OC)c(OC)c1)=N\O (configuration not stated)
inactive: ACHN > 100 µM | CCRF-CEM > 100 µM | HCC 2998 > 100 µM | HCT-116 > 100 µM | HL-60 > 100 µM | HOP-92 > 100 µM | LOX IMVI > 100 µM | MDA-MB-435 > 100 µM | MDA-N > 100 µM | MOLT-4 > 100 µM | NCI-H226 > 100 µM | NCI-H23 > 100 µM | SF-539 > 100 µM | SK-MEL-2 > 100 µM | SK-OV-3 > 100 µM | SN12C > 100 µM | SNB-19 > 100 µM | SNB-75 > 100 µM | U-251 > 100 µM

CC(=O)N(C(C)=O)c1c(N)n(C)c(=O)[nH]c1=O
inactive: ACHN > 100 µM | CCRF-CEM > 100 µM | HCC 2998 > 100 µM | HCT-116 > 100 µM | HL-60 > 100 µM | HOP-92 > 100 µM | LOX IMVI > 100 µM | M19-MEL > 100 µM | MOLT-4 > 100 µM | NCI-H226 > 100 µM | NCI-H23 > 100 µM | SF-539 > 100 µM | SK-MEL-2 > 100 µM | SN12C > 100 µM | SNB-19 > 100 µM

CCOC(=O)C(C)(C)Oc1ccc2c(-c3ccc(Cl)cc3)cc(=O)oc2c1
inactive: ACHN > 100 µM | CCRF-CEM > 100 µM | HCC 2998 > 100 µM | HCT-116 > 100 µM | HL-60 > 100 µM | LOX IMVI > 100 µM | M19-MEL > 100 µM | MOLT-4 > 100 µM | NCI-H226 > 100 µM | NCI-H23 > 100 µM | SF-539 > 100 µM | SK-MEL-2 > 100 µM | SN12C > 100 µM | SNB-19 > 100 µM | SNB-75 19.3 µM | U-251 > 100 µM

CN1/C(=C\N=O)C(C)(C)N(O)C1(C)C
inactive: ACHN > 100 µM | CCRF-CEM > 100 µM | HCC 2998 > 100 µM | HCT-116 > 100 µM | HL-60 > 100 µM | HOP-92 > 100 µM | LOX IMVI > 100 µM | MDA-MB-435 > 100 µM | MDA-N > 100 µM | MOLT-4 > 100 µM | NCI-H226 > 100 µM | NCI-H23 > 100 µM | SF-539 > 100 µM | SK-MEL-2 > 100 µM | SK-OV-3 > 100 µM | SN12C > 100 µM | SNB-19 > 100 µM | SNB-75 > 100 µM | U-251 > 100 µM

O=C1CC(Sc2nc3ccc(I)cc3c(=O)n2Cc2ccccc2)C(=O)NN1 (configuration not stated)
inactive: ACHN 16.6 µM | CCRF-CEM 8.28 µM | HCC 2998 17.6 µM | HCT-116 15.7 µM | HL-60 20 µM | HOP-92 17.7 µM | LOX IMVI 3.18 µM | MDA-MB-435 17.7 µM | MDA-N 18 µM | MOLT-4 14.3 µM | NCI-H226 5.89 µM | NCI-H23 15.7 µM | SF-539 18.2 µM | SK-MEL-2 17.1 µM | SK-OV-3 16 µM | SN12C 14.5 µM | SNB-19 19.3 µM | SNB-75 11.7 µM | U-251 15.9 µM

O=[N+]([O-])c1cc(F)ccc1S(=O)(=O)c1ccccc1
inactive: ACHN > 10 µM | CCRF-CEM > 10 µM | HCC 2998 > 10 µM | HCT-116 > 10 µM | HL-60 > 10 µM | HOP-92 > 10 µM | LOX IMVI > 10 µM | MDA-MB-435 > 10 µM | MDA-N > 10 µM | MOLT-4 > 10 µM | NCI-H226 > 10 µM | NCI-H23 > 10 µM | SF-539 > 10 µM | SK-MEL-2 > 10 µM | SK-OV-3 > 10 µM | SN12C > 10 µM | SNB-19 > 10 µM | SNB-75 > 10 µM | U-251 > 10 µM

COC(=O)C(NC(=O)C(CC(=O)OCc1ccccc1)NC(=O)OCc1ccccc1)C1CCCCC1 (configuration not stated) (Cbz-Asp(OBn)-[Chg]-OMe; configuration not given here)
inactive: ACHN > 100 µM | CCRF-CEM > 100 µM | HCC 2998 > 100 µM | HCT-116 > 100 µM | HL-60 > 100 µM | HOP-92 21.7 µM | LOX IMVI > 100 µM | MDA-MB-435 > 100 µM | MDA-N > 100 µM | MOLT-4 38.3 µM | NCI-H226 > 100 µM | NCI-H23 > 100 µM | SF-539 59.7 µM | SK-MEL-2 51.9 µM | SK-OV-3 > 100 µM | SN12C > 100 µM | SNB-19 > 100 µM | SNB-75 62.8 µM | U-251 > 100 µM

Reference: ChEMBL document CHEMBL1201862, “PubChem BioAssay data set” (2004)
